# Laboratory results as given in patent US20140349941A1, “AROMATIC-CATIONIC PEPTIDES AND USES OF SAME” (Cornell University, priority 2011, published 2014).
# Key:
# cyt c = cyt c (Homo sapiens, UniProt P99999); assay: Cyclic voltammetry of cyt c in solution
# [1] = test system: cyt c-depleted mitoplasts; assay: Respiration in cytochrome c-depleted mitoplasts; assay type: biochemical, rat
# Procedure: Rates of respiration were measured in the presence of 500 μM Succinate with or without 100 μM SS-31. The experiment was carried out in triplicate, with n=3.
# A model of cyt C tightly bound to mitochondrial cardiolipin was used to investigate interaction of SS-31 with cytochrome c-CL complex in mitochondria. After removal of outer membrane with digitonin, mitoplasts were washed with 120 mM KCl to remove all free and electrostatically associated cytochrome c, leaving only cytochrome c tightly bound to CL.
# isolated mitochondria = assay: ATP synthesis in isolated mitochondria; assay type: biochemical, rat
# Procedure: Fresh mitochondria were isolated from rat kidney as described previously. Electron flux was measured by O2 consumption (Oxygraph Clark electrode) as previously described using different substrates for C1 (glutamate/malate), C2 (succinate), and C3 (TMPD/ascorbate). Assays were carried out under low substrate conditions in order to avoid saturating the enzyme reactions. ATP production in isolated mitochondria was determined kinetically using the luciferase method (Biotherma) in a 96-well luminescence plate reader (Molecular Devices). The initial maximal rate for ATP synthesis was determined over the first minute.
# The rate of mitochondrial ATP synthesis was determined by measuring ATP in respiration buffer collected from isolated mitochondria 1 min after addition of […] (FIG. 6). ATP was assayed by HPLC. All experiments were carried out in triplicate, with n=3.
# SS-20 or SS-31 was added at 100 μM concentrations to isolated mitochondria in respiration buffer containing 0.5 mM succinate (complex II substrate) and 400 μM ADP. Similar increases in O2 consumption were observed when low concentrations of complex I substrates (glutamate/malate) were used (data not shown).
# Increase in electron flux in the electron transport chain can either result in increase in ATP synthesis or increase in electron leak and generation of free radicals. ATP synthesis in isolated mitochondria was assayed by HPLC.
# cytochrome c-CL complex = cytochrome c-CL complex (Homo sapiens, UniProt P99999); assay: Cytochrome c/CL peroxidase activity (amplex red); assay type: biochemical
# Chain of cytochrome c-CL complex (P99999 2-105 limits assumed, species assumed, one chain of several): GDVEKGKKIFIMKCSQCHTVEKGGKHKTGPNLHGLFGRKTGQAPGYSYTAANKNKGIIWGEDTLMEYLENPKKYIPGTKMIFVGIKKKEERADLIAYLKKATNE
# Source text: (§1) The six coordination of the heme in cytochrome c prevents direct interaction of H2O2 with the catalytic metal site, and native cytochrome c in solution is a poor peroxidase. Upon interaction with CL, cytochrome c undergoes a structural change with rupture of the Fe-Met80 coordination. […] The mechanism of action of cytochrome c peroxidase is similar to that of other peroxidases, such as horse radish peroxidase (HRP). Thus it is possible to use the amplex red-HRP reaction to investigate cytochrome c peroxidase activity. In the presence of peroxidase, amplex red (AR) reacts with H2O2 to form the red-fluorescent oxidation product, resorufin (Ex/Em=571/585).
# Cytochrome c (2 μM) was mixed with CL (25 μg/ml) and 10 μM H2O2 in 20 mM HEPES, pH 7.4. Amplex red (50 μM) was then added and fluorescence emission monitored in real time using Hitachi F4500 fluorescence spectrophotometer. Addition of amplex red elicited rapid increase in fluorescence signal due to resorufin formation, providing direct evidence for peroxidase activity of cytochrome c/CL complex (FIG. 29A).
# [2] = target: T1, horse radish peroxidase (HRP) (Armoracia rusticana, UniProt P00433); assay: HRP activity (amplex red); assay type: biochemical; details: data not shown
# T1 sequence (P00433 31-338 limits assumed): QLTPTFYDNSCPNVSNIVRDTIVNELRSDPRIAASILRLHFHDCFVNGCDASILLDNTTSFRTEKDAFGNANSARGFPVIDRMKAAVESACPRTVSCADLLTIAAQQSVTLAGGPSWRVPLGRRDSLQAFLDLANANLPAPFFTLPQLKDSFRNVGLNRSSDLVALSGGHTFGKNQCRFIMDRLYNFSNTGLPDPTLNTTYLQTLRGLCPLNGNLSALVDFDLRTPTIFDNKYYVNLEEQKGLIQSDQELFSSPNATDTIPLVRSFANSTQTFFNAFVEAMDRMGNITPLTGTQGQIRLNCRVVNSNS
# Source text: as §1
# cytochrome c = cytochrome c (Homo sapiens, UniProt P99999); assay: Cytochrome c reduction monitored by absorption spectroscopy (glutathione or NAC as reducing agent); assay type: biochemical
# Chain of cytochrome c (P99999 2-105 limits assumed, species assumed): as the sequence (P99999 2-105 limits assumed, species assumed, one chain of several) above
# Procedure: Cytochrome c reduction: increasing amounts of aromatic-cationic peptides were added to a solution of oxidized cyt c. The formation of reduced cyt c was monitored by absorbance at […]. The rate of cyt c reduction was determined by non-linear analysis (Prizm software).
# Time-resolved UV-Visible absorption spectroscopy was used to study the electron transport process of cyt c in the presence of peptides. Reduced cyt c was monitored by absorbance at a broad-band spectral range (200-1100 nm). The absorption changes were recorded with a UV/Visible spectrophotometer (Ultrospec 3300 pro, GE) in quartz cells with path lengths of 1 or 2 mm. N-acetylcysteine (NAC) and glutathione were used as electron donors to reduce oxidized cyt c. The rate constant of cyt c reduction was estimated by adding various concentrations of peptides. The dose dependence of the peptides was correlated to the cyt c reduction kinetics.
# Absorption spectroscopy (UltroSpec 3300 Pro; 220-1100 nm) was used to determine if SS-31 modulates cyt c reduction (FIG. 1). Reduction of cyt c with glutathione is associated with multiple shifts in the Q band (450-650 nm), with a prominent shift at 550 nm.
# Reduction of cyt c was monitored by increase in absorbance at 550 nm. […] Similar results were obtained using N-acetylcysteine (NAC) as a reducing agent (not shown).
# Chain of cyt c (P99999 2-105 limits assumed, species assumed): as the sequence (P99999 2-105 limits assumed, species assumed, one chain of several) above
substance,measurement,setting,value
D-Arg-2′6′Dmt-Lys-Phe-NH2 [SS-31],current for reduction and oxidation processes of cyt c,"cyt c; Au working electrode, Ag/AgCl reference, FIG. 2 upper panel",increased current for both reduction and oxidation processes
same,reduction/oxidation potentials of cyt c,cyt c; FIG. 2 upper panel,does not alter reduction/oxidation potentials
same,increase of current (electron diffusion rate),"cyt c; cyt c:SS31=1:2, TBE buffer, FIG. 2 lower panel",~200%
same,mitochondrial O2 consumption (respiration),"[1]; 500 μM succinate, 100 μM peptide, once-frozen rat kidney mitochondria, FIG. 7",Enhances Respiration in Cytochrome C-Depleted Mitoplasts
same,complex II respiration in mitoplasts,"[1]; cytochrome c tightly bound to CL, digitonin, 120 mM KCl wash, dose-dependent, FIG. 28",enhances complex II respiration
same,rate of mitochondrial ATP synthesis,"isolated mitochondria; ATP by HPLC 1 min after addition of 400 mM ADP, FIG. 6",dose-dependently increased the rate of ATP synthesis
same,ATP synthesis,"isolated mitochondria; assayed by HPLC, FIG. 27",dose-dependently increased ATP synthesis
same,rate of ATP production,"isolated mitochondria; mitochondria energized with low concentrations of succinate, FIG. 15",significant increase in the rate of ATP production
same,kinetics of cytochrome c peroxidase activity,cytochrome c-CL complex; FIG. 29B,dose-dependently reduced the kinetics of cytochrome c peroxidase activity
same,rate of amplex red peroxidation,"cytochrome c-CL complex; cytochrome c 2 μM, CL 25 μg/ml, 10 μM H2O2, amplex red 50 μM, FIG. 29A",decreased the rate of amplex red peroxidation
same,peroxidase activity in cytochrome c/CL complex,"cytochrome c-CL complex; figure legend FIG. 29A-C, comparison at a fixed concentration of 10 μM (FIG. 29C)",preventing peroxidase activity in cytochrome c/CL complex
same,HRP activity,[2],had no effect on HRP activity
same,rate of NAC-induced cyt c reduction,cytochrome c; N-acetylcysteine as reducing agent,dose-dependently increased the rate of NAC-induced cyt c reduction
same,kinetics of cyt c reduction induced by glutathione (GSH),"cytochrome c; absorbance at 550 nm, FIG. 13",can accelerate the kinetics of cyt c reduction
same,cyt c reduction by peptide alone,cytochrome c; peptide alone at 100 μM,did not reduce cyt c
same,spectral weight shift at 550 nm of cyt c,"cytochrome c; reduction of cyt c with glutathione, FIG. 1A",significant spectral weight shift at 550 nm
same,rate of cyt c reduction,"cytochrome c; time-dependent spectroscopy, FIG. 1B",increased the rate of cyt c reduction
